Measurements: patent US20110312984A1, “STAT3 INHIBITORS” (priority 2008, published 2011)

Tested on: triple negative human breast cancer xenograft
Assay: Triple-negative human breast cancer xenograft, MSFE after two days of treatment
Type: in vivo, SCID Beige mice
Settings: 250 mcg, n=3, P<0.05
Text: A tumor line derived from a “triple negative” (ER-negative, PgR-negative, and HER-2 negative) human breast cancer biopsy specimen was transplanted into immunocompromised SCID Beige mice. The animals (n=3) received two doses of vehicle control, 2 different doses of Cpd 188 (125 or 250 mcg), a G-quartet oligodeoxynucleotide (GQ-ODN, T40214; GQ-I) previously determined to target Stat3 (Jing et al., 2004) and a control non-specific ODN (GQ-II) each at two doses (125 or 250 mcg). The animals were sacrificed after only two days of treatment, and MSFE determined.
Xenograft assays. One can use two xenografts developed from human breast cancer biopsies that express activated p-Stat3 by IHC. From these established xenograft lines, for each of the top 5 inhibitors, the following studies may be undertaken: a) short term experiments with stem cell inhibitors at two doses vs. vehicle control and b) the optimal dose of the combination of chemotherapy with each of the five stem cell inhibitors.
a) Short term (2-day) experiments: One can test the five inhibitors at 2 doses. […]
b) Long-term (2-week studies) experiments: One can assess the effect of the self-renewal inhibitor on tumor growth and stem cell behavior. […] Size of the xenografts is monitored longitudinally by caliper measurement using the RECIST criteria for assessment of tumor response. […]

Question: Which “reduction in MSFE compared to control” value does the source give for `O=C(O)CSc1cc(NS(=O)(=O)c2ccc(C(=O)O)cc2)c2ccccc2c1O` [Cpd188, 4-[({3-[(carboxymethyl)thio]-4-hydroxy-1-naphthyl}amino)sulfonyl]benzoic acid] here?
Answer: significant reduction
